Patent EP0379737A2, “Dihydropyridine derivatives for the treatment of angiospasm” (THE GREEN CROSS CORPORATION, priority 1988, dated 1990)

Key:
[1] = system: coronarism induced by laser cauterization of the coronary artery; assay: Preventive effect of premedication with coronary vasodilators on coronarism induced by laser cauterization of the coronary artery; format: in vivo; conditions: anesthetized dogs, drugs given 10 minutes before cauterization (TNG 100 µg i.c. + 50 µg/min d.i.v.; NC 30 µg/kg/min d.i.v.; Compound 2 10 µg/kg i.v.); for Degree of Stenosis (%) (m ± SE) 10 mins. After: 10 minutes after cauterization; for Degree of Stenosis (%) (m ± SE) 30 mins. After: 30 minutes after cauterization; for Degree of Stenosis (%) (m ± SE) Immediately After: immediately after cauterization
Experimental: Preventive effect of premedication of coronary vasodilators on coronarism induced by laser cauterization of the coronary artery was examined using dogs.
Twenty-three anesthetized dogs premediated with a coronary vasodilator [8 dogs in non-treated group (control group); 7 in nitroglycerin-treated (TNG) group (100 µg i.c. (intracoronary) + 50 µg/min d.i.v. (intravenous drip injection)); 5 in Nicorandil (NC) group (30 µg/kg/min d.i.v); and 8 in Compound 2 (hereinafter described) group (10 µg/kg i.v.)] were used. A 9F guiding catheter was inserted from the right common carotid artery into the 28th circumflex ramus extending from the anterior descending branch of the right common carotid artery. After intravenous injection of 250 U of heparin and 20 mg of lidocaine, a probe having an argon laser heating tip having a diameter of 1.5 mm (manufactured by Trimedyne Corp.) was inserted through the catheter, and 10 minutes after the administration of drugs the coronary vessel was cauterized under a condition of 4.5 W × […] under photofluoroscopic observation. Before the cauterization, immediately after the cauterization, and 10 minutes and 30 minutes after the cauterization, changes of the coronary artery were angiographically observed. The degree of stenosis (%) was calculated from the measured inner diameter each of the cauterized site and the normal site. The degree of stenosis of a site undergoing retardation of angiography was taken as 99%.

[2] = Toxicity: LD50 determination in mice; conditions: mouse, in vivo; 10 to 11-week-old male mice, 3 to 5 mice per group; read-out: LD₅₀
Experimental: LD₅₀ was determined for Compound 2 as prepared in Reference Example 1 below using 10 to 11-week-old male mice (body weight: 14 to 16 g; 3 to 5 mice per group). AS a result, measured LD₅₀ values were more than 1,100 mg/kg at the lowest.

Row | SMILES | Degree of Stenosis (%) (m ± SE) 10 mins. After [1] | Degree of Stenosis (%) (m ± SE) 30 mins. After [1] | Degree of Stenosis (%) (m ± SE) Immediately After [1] | LD50 [2]
1 | COC(=O)C1=C(C)NC(C)=C(C(=O)OCCc2ccc(N3CCN(C(c4ccccc4)c4ccccc4)CC3)cc2)C1c1cccc([N+](=O)[O-])c1 (stereo not shown) [Compound 2, 2-[p-(4-benzhydrylpiperazino)phenyl]ethyl methyl 2,6-dimethyl-4-(3-nitrophenyl)-1,4-dihydropyridine-3,5-dicarboxylate] | 9 ± 10 % | 12 ± 12 % | 12 ± 12% | > 1100 mg/kg
2 | O=[N+]([O-])OCC(CO[N+](=O)[O-])O[N+](=O)[O-] [TNG, nitroglycerin] | 73 ± 17% | 66 ± 17% | 71 ± 4% | –
3 | O=C(NCCO[N+](=O)[O-])c1cccnc1 [NC, Nicorandil] | 28 ± 9 % | 29 ± 8 % | 38 ± 11 % | –
